Assay results published in patent publication US4025556A, “Quaternary ammonium-hydroxyaryl compounds” (Ciba-Geigy AG, priority 1967, dated 1977).

How the values were obtained:
Assay type in all cases: cell-based
Escherichia coli = assay: Minimal inhibitory concentration (MIC), gradient plate test, bacteriostasis; settings: brain heart infusion agar, 24 hours at 37° C
Excerpt: (§1) Measuring the minimal inhibitory concentration (MIC) towards bacteria and fungi in the gradient plate test
(§2) The compounds of the formula (1) in suitable formulations (for example as solutions in dimethylsulphoxide) of certain concentrations are mixed with warm brain heart infusion agar (bacteria) and Mycophil-Agar (fungi). The liquid mixtures are poured over a solidified, wedge-shaped basic agar layer and likewise allowed to solidify.
(§3) The test organisms are then applied by means of a Pasteur pipette in lines at right angles to the gradient. After an incubation period of 24 hours at 37° C. (bacteria) and 72 hours at 30° C. (fungi) the length of the germs grown on the inoculation line is measured and expressed in parts per million of active substance.

Staphylococcus aureus [1] = assay: as above; settings: brain heart infusion agar, 24 hours at 37° C
Excerpt: as §1, §2, §3

Aspergillus niger [2] = assay: Minimal inhibitory concentration (MIC), gradient plate test, fungistasis; settings: Mycophil-Agar, 72 hours at 30° C
Excerpt: as §1, §2, §3

[3] = test system: Trichophyton mentagrophytes; assay: as above; settings: Mycophil-Agar, 72 hours at 30° C
Excerpt: as §1, §2, §3

Staphylococcus aureus [4] = assay: Minimal inhibitory concentration (MIC), dilution test, bacteriostasis; settings: brain heart infusion broth, 48 hours at 37° C
Description: (§4) Measuring the minimal inhibitory concentration (MIC) against bacteria and fungi in the dilution test
(§5) The minimal inhibitory concentration (MIC) is measured by a test derived from standardized methods which makes available an approximation to absolute minimal inhibitory values of an active substance.
(§6) A solution of 0.4% and 0.12% strength each in dimethylsulphoxide is prepared with the active substances. 0.25 ml of each of these solutions is added to 9.75 ml of sterile brain heart infusion broth (bacteria) and beerwort solution (fungi) respectively. By continual dilution to 10 times the volume two series are obtained which are combined and thereby converted into the following continuous dilution series:
(§7) 100, 30, 10, 3, 1 . . . part per million of active substance.
(§8) The solutions are inoculated with the bacterium Staphylococcus aureus and with fungi Aspergillus niger and Rhizopus nigricans respectively. Then incubation is performed for 48 hours at 37° C. (bacteriostasis) with Staphylococcue aureus and for 72 hours at 30° C. (fungistasis)with the fungi.

Aspergillus niger [5] = assay: Minimal inhibitory concentration (MIC), dilution test, fungistasis; settings: beerwort solution, 72 hours at 30° C
Description: as §4, §5, §6, §7, §8

Rhizopus nigricans = assay: as above; settings: beerwort solution, 72 hours at 30° C
Description: as §4, §5, §6, §7, §8

Staphylococcus aureus [6] = assay: Activity of impregnated fabrics against bacteria (agar plate, inhibitory zone and growth)
Description: (§9) Samples of C. 100 g each of cotton creton are impregnated on a padder with a 1% solution of one of the compounds of the formula (1) in isopropanol at 20° C and then squeezed to a weight increase of 100%.
(§10) Samples of 100 g each of wool cheviot were treated in an identical manner.
(§11) After having been dried at 30° to 40° C. the fabrics contain 1% of active substance referred to their own weight.
To test the activity against bacteria round blanks of 10 mm diameter of the impregnated fabrics, one half of which untreated and the other after having been watered for 24 hours at 29° C., are placed on brain infusion agar plates previously inoculated with Staphylococcus aureus. The plates are then incubated for 24 hours at 37° C.
(§12) The evaluation extends, on one hand, to the inhibitory zones (IZ in mm) around the blanks and, on the other hand, on the growth (G in %) detected under a microscope underneath and/or on the fabric: […]

Aspergillus niger [7] = assay: Activity of impregnated fabrics against fungi (agar plate, inhibitory zone and growth)
Description: as §9, §10, §11
To test the activity against fungi round blanks of 25 mm diameter are placed on beerwort agar plates and then inoculated with Aspergillus niger, and the plates are then incubated for 72 hours at 30° C.
as §12

Staphylococcus aureus [8] = assay: Antibacterial properties of impregnated paper (agar plate, inhibitory zone and growth); settings: paper with 1% of active substance, 24 hours at 37° C
Excerpt: (§13) Crude paper, which consists of 90% of bleached sulphite cellulose and 10% of birch pulp, is impregnated in a sizing press with a 2.5% solution of the compound of the formula (11) in methanol+water 2:1 to a weight increase of 40%.
(§14) The dried paper contains 1% of active substance referred to its original weight.
To test its antibacterial properties round blanks of 10 mm diameter of the impregnated paper are placed on brain heart infusion agar plates previously inoculated with Staphylococcus aureus, and the plates are then incubated for 24 hours at 37° C.
(§15) The evaluation extends, on one hand, to the inhibitory zone (IZ in mm) around the paper blanks and, on the other hand, to the microscopically discernible growth (G in %) underneath and/or on the blanks: […]

Aspergillus niger [9] = assay: Fungicidal activity of impregnated paper (agar plate, inhibitory zone and growth); settings: paper with 1% of active substance, 72 hours at 30° C
Description: as §13, §14
For testing its fungicidal activity round blanks of 25 mm diameter are placed on Mycophil-Agar plates and inoculated with Aspergillus niger, and the plates are incubated for 72 hours at 30° C.
as §15

[10] = cotton with 1% of active substance, untreated
[11] = wool with 1% of active substance, untreated

| Molecule | Minimal inhibitory concentration, bacteriostasis, Escherichia coli (Escherichia coli) | Minimal inhibitory concentration, bacteriostasis, Staphylococcus aureus (Staphylococcus aureus [1]) | Minimal inhibitory concentration, fungistasis, Aspergillus niger (Aspergillus niger [2]) | Minimal inhibitory concentration, fungistasis, Trichophyton mentagrophytes [3] | Inhibitory values in ppm in bacteriostasis, Staphylococcus aureus (MIC) (Staphylococcus aureus [4]) | Inhibitory values in ppm in fungistasis, Aspergillus niger (MIC) (Aspergillus niger [5]) | Inhibitory values in ppm in fungistasis, Rhizopus nigricans (MIC) (Rhizopus nigricans) | inhibitory zone (IZ) (Staphylococcus aureus [6]; [10]) | inhibitory zone (IZ) (Staphylococcus aureus [6]; cotton with 1% of active substance, watered 24 hours at 29° C) | inhibitory zone (IZ) (Staphylococcus aureus [6]; [11]) | inhibitory zone (IZ) (Staphylococcus aureus [6]; wool with 1% of active substance, watered 24 hours at 29° C) | inhibitory zone (IZ) (Aspergillus niger [7]; [10]) | inhibitory zone (IZ) (Aspergillus niger [7]; cotton with 1% of active substance, watered) | inhibitory zone (IZ) (Aspergillus niger [7]; [11]) | inhibitory zone (IZ) (Aspergillus niger [7]; wool with 1% of active substance, watered) | inhibitory zone (IZ) (Staphylococcus aureus [8]) | inhibitory zone (IZ) (Aspergillus niger [9]) |
| --- | --- | --- | --- | --- | --- | --- | --- | --- | --- | --- | --- | --- | --- | --- | --- | --- | --- |
| CCCCCCCCCCCC[N+](CCO)(CCO)Cc1ccccc1.[O-]c1cccc2cccnc12 [L] | 20 ppm | 3 ppm | 6 ppm | 6 ppm |  |  |  |  |  |  |  |  |  |  |  |  |  |
| benzyl-bis-(2-hydroxyethyl)-dodecyl ammonium pentachlorophenolate |  |  |  |  | 10 ppm | 10 ppm | 10 ppm | 6 mm | 5 mm | 6 mm | 3 mm | 7 mm | 4 mm | 0 mm | 0 mm | 2.5 mm | 1 mm |
